Assay results from US20200341014A1, “PD Marker of Hepatocyte Growth Factor (HGF)” (EISAI R&D MANAGEMENT CO., LTD., priority 2016, published 2020).

Columns and labels:
human ApoA4 mRNA = test: Real-time PCR of human ApoA4 mRNA in human primary culture hepatocytes treated with rh-HGF; type: cell-based; conditions: FIG. 5
Method: (§1) Human primary culture hepatocytes seeded in a 24-well plate (3.8×10^5 cells/well, Biopredic International, #HEP220-MW24) were cultured for three days in Incubation Medium (product name: Biopredic International, #MIL214), then c-Met inhibitor PF-04217903 (final concentration 100 nmol/L) (Selleck Chemicals, #S1094, lot. 05) or vehicle (DMSO) was added, and after 1 hour, rh-HGF (final concentration 100, 300, or 1000 ng/mL) or (Incubation Medium) for the control group (Control) was added.
From hepatocytes 24 hours after addition of rh-HGF, total RNA was purified with RNeasy Mini Kit (QIAGEN, #74104) and RNase-Free DNase set (QIAGEN, #79254), and RNA concentration was measured by absorbance. The purified total RNA was reverse transcripted using High-Capacity cDNA Reverse Transcription Kit with RNase Inhibitor (Applied Biosystems, #4374966) to create cDNA. With the cDNA obtained as the template, the amount of ApoA4 mRNA expressed was examined by real-time PCR method. 18S rRNA was used as the internal control for examination. […]
(§2) With the results of ApoA4 mRNA quantification, Dunnett's multiple comparison test was carried out between the control and the rh-HGF administration groups.

ApoA4 protein [1] = test: Western blot quantification of serum ApoA4 protein in mice administered rh-HGF and c-Met inhibitor (Example 2); type: in vivo, mouse; conditions: FIG. 3
Method: (§3) To BALB/cAnNCrlCrlj male 6 weeks-old mice (CHARLES RIVER JAPAN), c-Met inhibitor PF-04217903 (50 mg/kg) (Selleck Chemicals #S1094, lot. 05) or vehicle (5% DMSO, 10% Tween80, 6.7 mmol/L aqueous hydrochloric acid solution) was orally administered at a dose of 10 mL/kg, and after 1 hour, rh-HGF (0.5, 1.5, 5.0, or 15 mg/kg) or PBS was intravenously administered. […] After euthanization, hepatic tissue was collected and immersed in RNA later (Ambion, #AM7021). Serum was collected from the blood collected.
Using the above serum, ApoA4 protein was quantified by Western blot method. To the serum diluted 200-folds with PBS (−) (Wako), ¼ volume of the electrophoresis buffer solution (313 mM Tris-HCl (pH 6.8), 10% SDS, 30% Glycerol, 0.2 mg/mL Bromo-phenol blue, and 25% 2-Mercaptoethnol) was added (the final dilution of the serum will be 250-folds), and this was subjected to heat treatment at 95° C. for 3 minutes. […] After washing three times with the above wash solution, chemiluminescence solution SuperSignal West Dura Extended Duration Substrate (Thermo Scientific) was added to allow luminescence, and ApoA4 protein was detected with LAS-4000 (FUJIFILM).
For the results of serum ApoA4 protein quantification, Dunnett's multiple comparison test was carried out between the control and the rh-HGF administration groups.

human ApoA4 protein = test: Western blot quantification of human ApoA4 protein in human hepatocyte culture supernatant; type: cell-based; conditions: FIG. 6
Method: as §1
Using hepatocyte culture supernatant (the same culture supernatant as that of cells for preparation of mRNA) 24 Hours after addition of rh-HGF, ApoA4 protein was quantified by Western blot method. […] After washing three times with the above wash solution, chemiluminescence solution SuperSignal West Dura Extended Duration Substrate (Thermo Scientific) was added to allow luminescence, and ApoA4 protein was detected with LAS-4000 (FUJIFILM).
With the quantification results of ApoA4 protein, Dunnett's multiple comparison test was carried out between the control and the rh-HGF administration groups.

ApoA4 mRNA [2] = test: Real-time PCR of liver ApoA4 mRNA in mice administered rh-HGF and c-Met inhibitor (Example 2); type: in vivo, mouse; conditions: FIG. 2
Method: as §3
From the harvested liver, total RNA was purified with TRIZOL Reagent (Invitrogen, #15596-018), RNeasy Mini Kit (QIAGEN, #74104), and RNase-Free DNase set (QIAGEN, #79254), and RNA concentration was measured by absorbance.
Quantification of ApoA4 mRNA by real-time PCR method was carried out according to Example 1.
as §2

ApoA4 protein [3] = test: Western blot quantification of serum ApoA4 protein in Jo2 liver failure mice; type: in vivo, mouse; conditions: rh-HGF at 1.5, 5, or 15 mg/kg, FIG. 4
Method: To BALB/cAnNCrlCrlj male 6 weeks-old mice (CHARLES RIVER JAPAN), 0.23 mg/kg of anti-Fas monoclonal antibody (clone name: Jo2, BD Pharmingen, #554254, lot#3269634) was administered once into the tail vein to create an acute liver failure model. […] For the control group (Control), PBS was administered into the tail vein.
Quantification of serum ApoA4 protein was carried out according to Example 2.
With the measurement results of PT, AST, ALT, and serum ApoA4 protein, Dunnett's multiple comparison test was carried out between the control and the rh-HGF administration groups (FIG. 4).

ApoA4 mRNA [4] = test: Real-time PCR of ApoA4 mRNA from liver of healthy mice administered rh-HGF (Example 1); type: in vivo, mouse; conditions: rh-HGF 1.5 mg/kg intravenous, 8 and 24 hr; FIG. 1
Method: (§4) Using hepatocyte growth factor activator recombinantly expressed in Chinese hamster ovary (CHO) cells, human HGF recombinantly expressed in CHO cells were activated to obtain rh-HGF. BALB/cAnNCrlCrlj male 6 weeks-old mice (CHARLES RIVER JAPAN) were intravenously administered with Dulbecco's Phosphate buffered saline (PBS) (Wako, #045-29795) or rh-HGF (1.5 mg/kg). […] After euthanization, hepatic tissue was collected and immersed in RNA later (Ambion, #AM7021).
The same RNA as the sample employed for DNA microarray was reverse transcripted using High-Capacity cDNA Reverse Transcription Kit with RNase Inhibitor (Applied Biosystems, #4374966) to create cDNA. With the cDNA obtained as the template, the amount of ApoA4 mRNA expressed was examined by real-time PCR method. Hprt mRNA was used as the internal control for examination. For PCR reaction, PCR amplification reaction was carried out with TaqMan Fast Advanced Master Mix (Applied Biosystems, #4444557) and TaqMan Assay (ApoA4: Mm00431814_m1, Hprt: Mm03024075_m1, Applied Biosystems) and using ViiA7 Real-time PCR System (Applied Biosystems). […]
With the results of ApoA4 mRNA quantification, Dunnett's multiple comparison test was carried out between the control and the rh-HGF administration groups (FIG. 1).

Jo2 liver failure model = test: Severity of hepatopathy (AST, ALT, PT) in Jo2 liver failure model; type: in vivo, mouse; conditions: Jo2 liver failure mice, rh-HGF into tail vein 1 hour before anti-Fas MAb, 5 hours after MAb; FIG. 4
Method: To BALB/cAnNCrlCrlj male 6 weeks-old mice (CHARLES RIVER JAPAN), 0.23 mg/kg of anti-Fas monoclonal antibody (clone name: Jo2, BD Pharmingen, #554254, lot#3269634) was administered once into the tail vein to create an acute liver failure model. To this model, rh-HGF dissolved in PBS was administered into the tail vein at 0.15, 1.5, or 15 mg/kg 1 hour before administration of anti-Fas monoclonal antibody. For the control group (Control), PBS was administered into the tail vein. Five hours after the administration of anti-Fas monoclonal antibody, mice were retained under anesthesia by 3% isoflurane inhalation, blood was collected from the vein located behind the jaw bone, and Prothrombin time (PT) was measured with CoaguChek XS (Roche-diagnostics, #ES350009) and PT Test strips (Roche-diagnostics, #ES350054). […] The measurement of Aspartate Aminotransferase (AST) and Alanine transaminase (ALT) in the serum was each performed with L-type Wako AST·J2 (Wako) kit and L-type Wako ALT·J2 (Wako) kit and an automatic analysis device (Hitachi 7180 Automatic Analyzer, Hitachi High-Technologies). With the measurement results of PT, AST, ALT, and serum ApoA4 protein, Dunnett's multiple comparison test was carried out between the control and the rh-HGF administration groups (FIG. 4).

ApoA4 gene expression = test: DNA microarray analysis of hepatic tissue of healthy mice administered rh-HGF; type: in vivo, mouse
Method: as §4
From the harvested liver, total RNA was purified with TRIZOL Reagent (Invitrogen, #15596-018), RNeasy Mini Kit (QIAGEN, #74104), and RNase-Free DNase set (QIAGEN, #79254). RNA concentration was measured by absorbance, and then quality check was carried out with RNA 6000 Nano Assay Kit (Agilent Technologies, #5067-1511) using 2100 Bioanalyzer (Agilent Technologies).
The DNA microarray used was SurePrint G3 mouse GE 8×60K (Agilent Technologies, #G4852A). […] Among this, as molecules that may appear to possibly exist as soluble proteins, those having information of “Extracellular” or “Plasma membrane” in Gene Ontology annotation were extracted.

[5] = PF-04217903 100 nmol/L added 1 hour before rh-HGF
[6] = PF-04217903 50 mg/kg oral 1 hour before rh-HGF
[7] = rh-HGF 0.5-15 mg/kg intravenous, 24 hours

Compound	Effect on rh-HGF enhancement of human ApoA4 mRNA expression (human ApoA4 mRNA; [5])	Effect on rh-HGF induction of serum ApoA4 protein (ApoA4 protein [1]; [6])	Effect on rh-HGF enhancement of extracellular release of human ApoA4 protein (human ApoA4 protein; [5])	Effect on rh-HGF induction of liver ApoA4 mRNA expression (ApoA4 mRNA [2]; [6])	Human ApoA4 mRNA expression (human ApoA4 mRNA; human primary culture hepatocytes, rh-HGF 100, 300 or 1000 ng/mL, 24 hours)	ApoA4 protein expression in the serum (ApoA4 protein [1]; [7])	Extracellular release of human ApoA4 protein (human ApoA4 protein; human primary culture hepatocytes, culture supernatant, rh-HGF 100, 300 or 1000 ng/mL, 24 hours)	Blood ApoA4 protein value (ApoA4 protein [3])	ApoA4 mRNA expression in the liver (ApoA4 mRNA [2]; [7])	ApoA4 mRNA expression in liver (real-time PCR, Hprt internal control) (ApoA4 mRNA [4])	Effect on elevation of ALT (Jo2 liver failure model)	Effect on elevation of AST (Jo2 liver failure model)	Effect on extension of PT (Prothrombin time) (Jo2 liver failure model)	Signal value (average) 8 hours, ApoA4 (A_51_P327491) (ApoA4 gene expression; liver, 8 hr after rh-HGF 1.5 mg/kg intravenous)	Change in expression (vs 0 hours) 8 hours Ratio, ApoA4 (ApoA4 gene expression; liver, 8 hr after rh-HGF 1.5 mg/kg intravenous, vs PBS group)	Signal value (average) 24 hours, ApoA4 (A_51_P327491) (ApoA4 gene expression; liver, 24 hr after rh-HGF 1.5 mg/kg intravenous)	Change in expression (vs 0 hours) 24 hours Ratio, ApoA4 (ApoA4 gene expression; liver, 24 hr after rh-HGF 1.5 mg/kg intravenous, vs PBS group)	ApoA4 expression in liver (DNA microarray) (ApoA4 gene expression; rh-HGF 1.5 mg/kg intravenous vs PBS only (Group 1))
OCCn1cc(-c2cnc3nnn(Cc4ccc5ncccc5c4)c3n2)cn1 [PF-04217903, reference compound]	inhibited	inhibited	inhibited	significantly inhibited	–	–	–	–	–	–	–	–	–	–	–	–	–	–
rh-HGF: human HGF recombinantly expressed in CHO cells, activated with hepatocyte growth factor activator recombinantly expressed in CHO cells	–	–	–	–	strongly enhanced	induction of ApoA4 protein expression	strongly enhanced	significant elevation	significantly induced/enhanced	strongly enhanced	strongly inhibited	strongly inhibited	strongly inhibited	15738	6.46	13453	5.52	enhancement of expression
